Test system: MV-4-11 AML cells
Assay: MLLr AML xenograft model MV-4-11
Type: in vivo, female CB17 SCID mice
Conditions: for % REGRESSION AT DOSING END / % TUMOR REGROWTH AT STUDY END: 14 days
Method: MV-4-11 cells were grown in RPM1 1640 (Gibco, #21875091) supplemented with 10% FBS (Gibco; #10091-148) and 1% Pen/Strep (Gibco; #15140-122). Cells were harvested and resuspended in PBS/Matrigel (Corning; #CLS354234) (50/50). The compound of Example 56-2 was formulated in water at pH 4.5-5 using 1 M MSA as pH-adjusting agent at the concentrations up to 100 mg/mL to achieve a uniform suspension and dosed twice daily by oral gavage 10 mL/kg. For convenience, the compound of Example 56-2 is referred to as “Compound 56-2” in this Example and the other Examples.
10 million human MV-4-11 AML cells were implanted subcutaneously in the right flank of female CB17 SCID mice. Mice were randomized into groups of 5 when average tumor volume reached approximately 160 mm^3. Mice were treated for 14 days with vehicle (water at pH 4.5-5 using 1M MSA) or Compound 56-2 at 30, 100, or 200 mg/kg. Compound 56-2 was dosed orally twice daily 8/16 hours apart. The group administered Compound 56-2 at 30, 100, 200 mg/kg were monitored for regrowth for 6 weeks. […] FIG. 1 illustrates the effect of treatment with Compound 56-2 on tumor volume in this MLLr MV-4-11 human AML cancer xenograft mouse model.

Cc1c(C(=O)C2CCN(C(=O)[C@@H]3CCC(C)(C)N3)CC2)c2ccncc2n1-c1ccc(F)cc1C(=O)N(C(C)C)C(C)C (single isomer, unassigned) [Compound 56-2]
% REGRESSION AT DOSING END (30 mg/kg oral twice daily): 88%
% TUMOR REGROWTH AT STUDY END (30 mg/kg oral twice daily, monitored 6 weeks): 100%
tumor regrowth (in words) (100 mg/kg and 200 mg/kg, monitored 6 weeks): no tumor regrowth
% REGRESSION AT DOSING END (100 mg/kg oral twice daily): 97%
% TUMOR REGROWTH AT STUDY END (100 mg/kg oral twice daily, monitored 6 weeks): 0%
% REGRESSION AT DOSING END (200 mg/kg oral twice daily): 99%
% TUMOR REGROWTH AT STUDY END (200 mg/kg oral twice daily, monitored 6 weeks): 0%

Source: patent US20240335431A1, “1-H-PYRROLO[2,3-c]PYRIDINE COMPOUNDS” (Acerta Pharma B.V., priority 2023, published 2024)
